# Target: T1, human liver glycogen phosphorylase a (HLGPa) (Homo sapiens, UniProt P06737)
# T1 construct: creating a full-length cDNA fused at the 5′ end to codons for methionine-glycine-alanine-histidine; 6xHis tag (leader Met-Gly-Ala-His6-Gly-Gly) (N); made in house; host or cells: E. coli (bacterial expression plasmid pTXK1007LTev)
# T1 sequence (P06737 2-847 limits assumed): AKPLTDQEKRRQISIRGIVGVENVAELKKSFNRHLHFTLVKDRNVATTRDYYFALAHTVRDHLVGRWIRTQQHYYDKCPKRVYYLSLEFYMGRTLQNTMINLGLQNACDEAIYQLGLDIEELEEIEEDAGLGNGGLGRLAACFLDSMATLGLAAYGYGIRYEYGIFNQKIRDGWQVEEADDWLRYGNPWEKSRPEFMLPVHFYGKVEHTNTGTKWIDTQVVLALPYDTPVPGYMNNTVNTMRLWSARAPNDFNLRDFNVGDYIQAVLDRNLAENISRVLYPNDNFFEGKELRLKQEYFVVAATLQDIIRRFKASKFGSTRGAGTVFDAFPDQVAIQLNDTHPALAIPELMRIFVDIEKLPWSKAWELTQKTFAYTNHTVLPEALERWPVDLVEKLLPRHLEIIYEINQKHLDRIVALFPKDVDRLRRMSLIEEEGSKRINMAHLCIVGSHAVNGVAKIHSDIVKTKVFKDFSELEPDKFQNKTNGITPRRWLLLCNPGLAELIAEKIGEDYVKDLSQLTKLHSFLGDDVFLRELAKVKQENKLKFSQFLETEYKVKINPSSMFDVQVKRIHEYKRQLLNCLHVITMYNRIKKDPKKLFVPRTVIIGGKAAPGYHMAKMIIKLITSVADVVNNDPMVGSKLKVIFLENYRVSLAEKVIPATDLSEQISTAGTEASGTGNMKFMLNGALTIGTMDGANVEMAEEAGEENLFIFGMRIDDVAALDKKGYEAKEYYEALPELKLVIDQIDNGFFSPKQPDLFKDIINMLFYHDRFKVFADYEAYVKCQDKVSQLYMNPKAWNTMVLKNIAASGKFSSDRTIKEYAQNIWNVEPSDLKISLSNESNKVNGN
# Test: Human liver glycogen phosphorylase a enzymatic activity assay (coupled, fluorescent resorufin readout, with and without 10 mM glucose)
# Type: biochemical
# Conditions: human liver glycogen phosphorylase a enzymatic activity assay
row,IC50 [nM],SMILES
1,17400,"Cc1cccc(Cl)c1NC(=O)Nc1ccc(I)cc1C(=O)N[C@@H](CC(=O)O)C(=O)O [Example 89, N-[2-({[(2-chloro-6-methylphenyl)amino]carbonyl}amino)-5-iodobenzoyl]-L-aspartic acid]"
2,1830,"O=C(Nc1cc(-c2ccncc2)sc1C(=O)O)Nc1c(Cl)cccc1Cl [Example 400, 3-({[(2,6-dichlorophenyl)amino]carbonyl}amino)-5-(4-pyridinyl)-2-thiophenecarboxylic acid]"
3,3,"Cc1cc(CC2CC2)cc(C)c1NC(=O)Nc1cc(-c2cccc(F)c2)ccc1C(=O)N[C@H](C(=O)O)[C@@H](C)OC(C)(C)C [Example 505, N-({3-[({[4-(cyclopropylmethyl)-2,6-dimethylphenyl]amino}carbonyl)amino]-3′-fluoro-4-biphenylyl}carbonyl)-O-(1,1-dimethylethyl)-L-threonine]"
4,7540,"Cc1cccc(Cl)c1NC(=O)Nc1cc(F)c(F)cc1C(=O)N[C@@H](CC(C)C)C(=O)O [Example 68, N-[2-({[(2-chloro-6-methylphenyl)amino]carbonyl}amino)-4,5-difluorobenzoyl]-L-leucine]"
5,32,"COc1ccc(-c2ccc(C(=O)N[C@@H](CC(=O)N(C)C)C(=O)O)c(NC(=O)Nc3c(C)cc(C)cc3C)c2)cc1 [Example 504, N^4,N^4-dimethyl-N^2-{[4′-(methyloxy)-3-({[(2,4,6-trimethylphenyl)amino]carbonyl}amino)-4-biphenylyl]carbonyl}-L-asparagine]"

# Same assay, conditions: human liver glycogen phosphorylase a; table does not say whether with or without 10 mM glucose
row,IC50 [nM],SMILES
1,340,"Cc1cc(C)c(NC(=O)Nc2cc3ccccc3cc2C(=O)N[C@H](c2nnn[nH]2)C(C)C)c(C)c1 [Example 340, N-[(1S)-2-methyl-1-(1H-tetrazol-5-yl)propyl]-3-({[(2,4,6-trimethylphenyl)amino]carbonyl}amino)-2-naphthalenecarboxamide]"
2,14400,"Cc1cc(C)c(NC(=O)Nc2cc3ccccc3cc2C(=O)NCC2CCCCC2)c(C)c1 [Example 330, N-(cyclohexylmethyl)-3-({[(2,4,6-trimethylphenyl)amino]carbonyl}amino)-2-naphthalenecarboxamide]"
3,2370,"COC(=O)[C@@H](NC(=O)c1cc(-c2ccccc2)sc1NC(=O)Nc1c(Cl)cccc1Cl)C1CCCCC1 [Example 383, methyl(2S)-cyclohexyl({[2-({[(2,6-dichlorophenyl)amino]carbonyl}amino)-5-phenyl-3-thienyl]carbonyl}amino)ethanoate]"
4,13500,"COC(=O)[C@H](CC(=O)OC(C)(C)C)NC(=O)c1ccc(-c2ccc(OC)cc2)cc1NC(=O)Nc1c(C)cc(C)cc1C [Example 371, 4-(1,1-dimethylethyl) 1-methyl N-{[4′-(methyloxy)-3-({[(2,4,6-trimethylphenyl)amino]carbonyl}amino)-4-biphenylyl]carbonyl}-L-aspartate]"
5,9130,"COC(=O)[C@H](CC(N)=O)NC(=O)c1ccc(-c2ccc(OC)cc2)cc1NC(=O)Nc1c(C)cc(C)cc1C [Example 377, methyl N^2-{[4′-(methyloxy)-3-({[(2,4,6-trimethylphenyl)amino]carbonyl}amino)-4-biphenylyl]carbonyl}-L-asparaginate]"
6,15,"CCCC[C@H](NC(=O)c1ccc(-c2ccc(OC)cc2)cc1NC(=O)Nc1c(C)cc(C)cc1C)C(=O)O [Example 219, N-{[4′-(methyloxy)-3-({[(2,4,6-trimethylphenyl)amino]carbonyl}amino)-4-biphenylyl]carbonyl}-L-norleucine]"
7,2380,"COc1ccc(NC(=O)Nc2cc3ccccc3cc2C(=O)N[C@H](C(=O)O)C2CCCCC2)c(OC)c1 [Example 239, (2S)-[({3-[({[2,4-bis(methyloxy)phenyl]amino}carbonyl)amino]-2-naphthalenyl}carbonyl)amino](cyclohexyl)ethanoic acid]"
8,4300,"COC(=O)[C@@H](NC(=O)c1sc(-c2ccc(F)cc2)cc1NC(=O)Nc1c(Cl)cccc1Cl)C1CCCCC1 [Example 386, methyl(2S)-cyclohexyl({[3-({[(2,6-dichlorophenyl)amino]carbonyl}amino)-5-(4-fluorophenyl)-2-thienyl]carbonyl}amino)ethanoate]"

# From patent US20070249670A1, “Glycogen Phosphorylase Inhibitor Compounds and Pharmaceutical Compositions Thereof” (SMITHKLINE BEECHAM CORPORATION, priority 2004, published 2007)
